Target: CDK12 wt/CycK (Homo sapiens (Human), UniProt Q9NYV4)
Test: Radiometric protein kinase assay (33PanQinase Activity Assay), Assay Condition A (thiol containing conditions)
Type: biochemical
Conditions: thiol containing conditions (1.2 mM DTT), ATP at apparent Km
Description: Objective: The IC50 profile of test compounds was determined using three protein kinases.
Test compounds: The compounds were provided as pre-weighed powders in vials. The compounds were dissolved to 1×10^−02M by adding DMSO. 100 μl of each of the resulting stock solutions were transferred into column 2 of four 96 well “master plates”.
Prior to testing, the 1×10^−02M stock solutions in column 2 of the master plates were subjected to a serial, semi-logarithmic dilution using 100% DMSO as a solvent. […] Column 1 and 7 were filled with 100% DMSO as controls. […]
The reaction cocktails were incubated at 30° C. for 60 minutes. […] Incorporation of ^33Pi was determined with a microplate scintillation counter (Microbeta, Wallac). […]
Evaluation of raw data: The median value of the counts in column 1 (n=8) of each assay plate was defined as “low control”. This value reflects unspecific binding of radioactivity to the plate in the absence of a protein kinase but in the presence of the substrate. […]
As part of the data evaluation the low control value from a particular plate was subtracted from the high control value as well as from all 80 “compound values” of the corresponding plate. The residual activity (in %) for each well of a particular plate was calculated by using the following formula: Res. Activity (%)=100×[(cpm of compound−low control)/(high control−low control)] […]

CDK12 wt/CycK, sequence (Q9NYV4 whole entry): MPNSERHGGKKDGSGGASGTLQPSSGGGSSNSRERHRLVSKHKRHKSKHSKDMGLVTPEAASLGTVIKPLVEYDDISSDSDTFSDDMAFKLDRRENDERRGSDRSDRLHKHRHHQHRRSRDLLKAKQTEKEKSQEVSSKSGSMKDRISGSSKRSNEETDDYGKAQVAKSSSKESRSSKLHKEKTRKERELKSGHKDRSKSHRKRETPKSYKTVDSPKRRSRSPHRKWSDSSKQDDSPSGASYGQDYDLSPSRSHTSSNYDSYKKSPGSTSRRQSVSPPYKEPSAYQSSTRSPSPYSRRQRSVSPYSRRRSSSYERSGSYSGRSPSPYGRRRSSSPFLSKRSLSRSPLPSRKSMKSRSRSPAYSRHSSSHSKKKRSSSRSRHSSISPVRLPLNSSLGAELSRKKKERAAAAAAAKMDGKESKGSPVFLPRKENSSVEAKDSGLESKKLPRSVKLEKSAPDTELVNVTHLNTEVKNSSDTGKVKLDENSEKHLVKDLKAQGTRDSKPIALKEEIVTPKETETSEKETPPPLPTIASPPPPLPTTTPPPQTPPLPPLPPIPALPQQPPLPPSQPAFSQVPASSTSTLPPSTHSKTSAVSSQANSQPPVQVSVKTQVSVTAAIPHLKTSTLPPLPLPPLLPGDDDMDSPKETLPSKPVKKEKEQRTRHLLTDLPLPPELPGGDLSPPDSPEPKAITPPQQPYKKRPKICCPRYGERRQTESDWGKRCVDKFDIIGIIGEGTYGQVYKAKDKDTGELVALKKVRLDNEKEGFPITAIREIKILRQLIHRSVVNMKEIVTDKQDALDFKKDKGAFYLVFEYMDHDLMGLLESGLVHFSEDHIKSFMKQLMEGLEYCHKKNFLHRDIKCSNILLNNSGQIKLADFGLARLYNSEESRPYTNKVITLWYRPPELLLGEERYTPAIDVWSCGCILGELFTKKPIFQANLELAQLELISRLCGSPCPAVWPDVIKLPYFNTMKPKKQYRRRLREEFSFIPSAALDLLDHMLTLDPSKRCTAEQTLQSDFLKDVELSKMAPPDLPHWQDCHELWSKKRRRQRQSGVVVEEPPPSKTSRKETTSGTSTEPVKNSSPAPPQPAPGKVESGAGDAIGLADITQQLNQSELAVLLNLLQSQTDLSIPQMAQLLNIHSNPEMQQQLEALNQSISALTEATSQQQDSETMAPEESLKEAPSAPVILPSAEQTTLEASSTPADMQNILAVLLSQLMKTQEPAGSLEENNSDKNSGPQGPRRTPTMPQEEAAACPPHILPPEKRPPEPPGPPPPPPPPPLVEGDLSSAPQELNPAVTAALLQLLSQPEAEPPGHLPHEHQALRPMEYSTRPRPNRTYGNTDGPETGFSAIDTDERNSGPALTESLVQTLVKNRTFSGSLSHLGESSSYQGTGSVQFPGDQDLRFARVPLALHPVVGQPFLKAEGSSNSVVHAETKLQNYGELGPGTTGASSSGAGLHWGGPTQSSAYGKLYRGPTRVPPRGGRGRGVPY
CDK12 wt/CycK, sequence (O75909 whole entry partner): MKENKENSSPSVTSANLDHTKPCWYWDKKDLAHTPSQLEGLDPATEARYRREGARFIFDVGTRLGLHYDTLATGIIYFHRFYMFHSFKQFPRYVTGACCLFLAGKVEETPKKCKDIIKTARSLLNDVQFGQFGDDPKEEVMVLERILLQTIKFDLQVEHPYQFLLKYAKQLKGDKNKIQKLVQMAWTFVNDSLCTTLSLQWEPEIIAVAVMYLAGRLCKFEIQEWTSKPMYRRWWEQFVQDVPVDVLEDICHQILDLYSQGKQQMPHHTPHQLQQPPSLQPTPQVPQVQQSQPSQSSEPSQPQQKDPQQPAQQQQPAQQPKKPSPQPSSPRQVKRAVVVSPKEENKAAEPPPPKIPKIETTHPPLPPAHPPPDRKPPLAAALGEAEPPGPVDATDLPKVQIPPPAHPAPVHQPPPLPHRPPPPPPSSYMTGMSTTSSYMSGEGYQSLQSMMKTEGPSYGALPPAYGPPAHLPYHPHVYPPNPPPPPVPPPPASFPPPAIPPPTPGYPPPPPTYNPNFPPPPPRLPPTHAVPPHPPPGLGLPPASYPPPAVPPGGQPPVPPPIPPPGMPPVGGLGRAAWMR

Compound | IC50 [nM]
COc1nc(N[C@@H]2CCN(C(=O)c3ccc(NC(=O)/C=C/CN4CC[C@@H](F)C4)cn3)C2)ncc1Cl [Example 170, (E)-N-(6-((R)-3-((5-chloro-4-methoxypyrimidin-2-yl)amino)pyrrolidine-1-carbonyl)pyridin-3-yl)-4-((R)-3-fluoropyrrolidin-1-yl)but-2-enamide] | 100 to 1000
(R)—N-(3-(3-((5-chloropyrimidin-2-yl)amino)pyrrolidine-1-carbonyl)phenyl)-2-cyano-3-(dimethylamino)acrylamide [Example 135] | 1000 to 10000
